# Data from patent US20180273531A1, “PYRIMIDINE COMPOUND AND MEDICAL USE THEREOF” (Japan Tobacco Inc., priority 2004, published 2018).
# Assays:
# Format in all cases: cell-based
# [1] = test system: Renal cancer cell line ACHN cell; assay: Growth inhibitory effect against cancer cell lines (3H-thymidine uptake), ACHN; conditions: Homo sapiens, ACHN
# Protocol: (§1) Renal cancer cell line ACHN cell or colorectal cancer cell line HT-29 cells were cultured in a 96 well plate at 1.0×10^4 cells/90 μL/well for 24 hrs, then a test substance dissolved in DMSO (dimethyl sulfoxide) was added. After 18 hrs, ^3H-thymidine (0.25 μCi/well) was added and the cells were cultured for 6 hrs. Using a cell harvester, the cells were recovered on a UniFilter-96 GF/B glass filter and the ^3H radioactivity uptaken by the cells was measured by TopCount (Packard). As a control, DMSO was used and the activity of the test substance was expressed in the concentration (IC50) necessary for inhibiting ^3H radioactivity uptaken by the cell to 50% of that of the control group. The measurements were made in triplicate.
# [2] = test system: colorectal cancer cell line HT-29 cells; assay: Growth inhibitory effect against cancer cell lines (3H-thymidine uptake), HT-29; conditions: Homo sapiens, HT-29, inhibition of 3H-thymidine uptake; test substance 18 hrs, then 3H-thymidine 6 hrs; triplicate
# Protocol: as §1
# [3] = test system: p15 protein; assay: Evaluation of p15 induction activity (Western blotting); conditions: test substance 0.1 μM, 24 hrs, ACHN cells or HT-29 cells, compared to DMSO, n=2
# Protocol: ACHN cells or HT-29 cells were cultured in a 6 well plate at 2.5×10^5 cells/1.8 mL/well for 24 hrs, then a test substance (0.1 μM) dissolved in DMSO was added. After 24 hrs, cells were detached using trypsin-EDTA (ethylene diamine tetraacetic acid) and solubilized with NuPAGE LDS sample buffer (Invitrogen). Using an RC DC protein assay kit (BIO-RAD), the protein concentration of the sample was quantitated, and a sample in an amount corresponding to 10 μg of BSA (bovine serum albumin) was analyzed by Western blotting using an anti-p15 antibody. The density of the band stained with the anti-p15 antibody was measured by a densitometer to quantify the amount of p15 protein. As a control, DMSO was used and the test was performed with n=2 and the average protein amount was determined.
SMILES,IC50 [1] [nM],IC50 [2] [nM],fold induction at 0.1 µM [3]
Cc1ccccc1-n1c(=O)n(C2CC2)c(=O)c2c(Nc3ccc(N(C)C)cc3)cc(=O)n(C)c21 [Example 1-106],100 to 1000,100 to 1000,≥ 1.5
Cn1c(=O)cc(Nc2ccc(Br)cc2)c2c(=O)n(C3CC3)c(=O)n(-c3ccccc3F)c21 [Example 1-113],100 to 1000,100 to 1000,≥ 1.5
Cc1ccc(Nc2cc(=O)n(C)c3c2c(=O)n(C2CC2)c(=O)n3-c2ccccc2)c(F)c1 [Example 1-168],,10 to 100,≥ 1.5
Cn1c(=O)cc(Nc2ccc(Br)cc2Cl)c2c(=O)n(C3CC3)c(=O)n(-c3ccccc3)c21 [Example 1-176],100 to 1000,10 to 100,≥ 1.5
COc1ccc(-n2c(=O)n(C3CC3)c(=O)c3c(Nc4ccc(Br)cc4)cc(=O)n(C)c32)cc1 [Example 1-183],,100 to 1000,≥ 1.5
Cn1c(=O)cc(Nc2ccc(Br)cc2F)c2c(=O)n(C3CC3)c(=O)n(-c3ccc(O)cc3)c21 [Example 1-188],100 to 1000,10 to 100,≥ 1.5
COc1cccc(-n2c(=O)n(C3CC3)c(=O)c3c(Nc4ccc(Br)cc4F)cc(=O)n(C)c32)c1 [Example 1-191],100 to 1000,10 to 100,≥ 1.5
CN(C)c1ccc(Nc2cc(=O)n(C)c3c2c(=O)n(C2CC2)c(=O)n3-c2ccccc2)c(F)c1 [Example 1-192],100 to 1000,10 to 100,≥ 1.5
Cn1c(=O)cc(Nc2ccc(Br)cc2F)c2c(=O)n(C3CC3)c(=O)n(-c3cccc(OCCN4CCOCC4)c3)c21 [Example 1-232],100 to 1000,10 to 100,
Cn1c(=O)cc(Nc2ccc(Br)cc2F)c2c(=O)n(C3CC3)c(=O)n(-c3cccc(NS(=O)(=O)CC(F)(F)F)c3)c21 [Example 1-267],100 to 1000,10 to 100,
Cn1c(=O)cc(Nc2ccc(Br)cc2F)c2c(=O)n(C3CC3)c(=O)n(-c3cccc(C(N)=O)c3)c21 [Example 1-270],100 to 1000,10 to 100,
CCCCC(=O)NCC(=O)Nc1cccc(-n2c(=O)n(C3CC3)c(=O)c3c(Nc4ccc(Br)cc4F)cc(=O)n(C)c32)c1 [Example 1-276],100 to 1000,10 to 100,
CCC(=O)Nc1cccc(-n2c(=O)n(C3CC3)c(=O)c3c(Nc4ccc(Br)cc4F)cc(=O)n(C)c32)c1 [Example 1-278],100 to 1000,10 to 100,
CNS(=O)(=O)c1cccc(-n2c(=O)n(C3CC3)c(=O)c3c(Nc4ccc(Br)cc4F)cc(=O)n(C)c32)c1 [Example 1-294],10 to 100,,
Cn1c(=O)cc(Nc2ccc(Br)cc2)c2c(=O)n(C3CC3)c(=O)n(-c3cccc(NS(C)(=O)=O)c3)c21 [Example 1-304],100 to 1000,10 to 100,
CCOC(=O)Nc1cccc(-n2c(=O)n(C3CC3)c(=O)c3c(Nc4ccc(Br)cc4F)cc(=O)n(C)c32)c1 [Example 1-308],100 to 1000,10 to 100,
Cn1c(=O)cc(Nc2ccc(Br)cc2F)c2c(=O)n(C3CC3)c(=O)n(-c3cccc(NS(=O)(=O)c4cccnc4)c3)c21 [Example 1-335],100 to 1000,10 to 100,
Cn1c(=O)cc(Nc2ccc(Br)cc2F)c2c(=O)n(C3CC3)c(=O)n(-c3cccc(NS(=O)(=O)CCN4CCOCC4)c3)c21 [Example 1-339],100 to 1000,,
Cn1c(=O)cc(Nc2ccc3sccc3c2F)c2c(=O)n(C3CC3)c(=O)n(-c3ccccc3)c21 [Example 1-343],100 to 1000,10 to 100,
Cc1c(=O)n(C)c(Nc2ccc(Br)cc2)c2c(=O)n(C3CC3)c(=O)n(-c3ccccc3)c12 [Example 3-1],100 to 1000,100 to 1000,

SMILES,IC50 [1] [nM],IC50 [2] [nM],fold induction at 0.1 µM [3]
Cc1c(=O)n(C)c(Nc2ccc(Br)cc2F)c2c(=O)n(C3CC3)c(=O)n(-c3ccc([N+](=O)[O-])cc3)c12 [Example 4-5],100 to 1000,10 to 100,
CCn1c(=O)c2c(Nc3ccc(I)cc3F)n(C)c(=O)c(C)c2n(-c2cccc(NS(=O)(=O)CC)c2)c1=O [Example 4-19],10 to 100,< 10,
CCn1c(=O)c2c(Nc3ccc(I)cc3F)n(C)c(=O)c(C)c2n(-c2cccc(NS(C)(=O)=O)c2)c1=O [Example 4-20],10 to 100,< 10,
CCc1ccc(Nc2c3c(=O)n(C4CC4)c(=O)n(-c4cccc(NS(C)(=O)=O)c4)c3c(C)c(=O)n2C)c(F)c1 [Example 4-25],10 to 100,< 10,
CCc1ccc(Nc2c3c(=O)n(C4CC4)c(=O)n(-c4cccc(NS(=O)(=O)CC)c4)c3c(C)c(=O)n2C)c(F)c1 [Example 4-26],10 to 100,< 10,
Cc1c(=O)n(C)c(Nc2ccc(I)cc2F)c2c(=O)n(C3CC3)c(=O)n(-c3cccc(NS(=O)(=O)N(C)C)c3)c12 [Example 4-33],< 10,< 10,
Cc1c(=O)n(C)c(Nc2ccc(I)cc2F)c2c(=O)n(C3CC3)c(=O)n(-c3cccc(NS(=O)(=O)N4CCOCC4)c3)c12 [Example 4-34],< 10,< 10,
CC(=O)Nc1cc(Cl)cc(-n2c(=O)n(C3CC3)c(=O)c3c(Nc4ccc(I)cc4F)n(C)c(=O)c(C)c32)c1 [Example 4-37],100 to 1000,10 to 100,
CCc1ccc(Nc2c3c(=O)n(C4CC4)c(=O)n(-c4cccc(NS(C)(=O)=O)c4)c3c(C)c(=O)n2CC)c(F)c1 [Example 4-39],100 to 1000,,
C#Cc1ccc(Nc2c3c(=O)n(CC)c(=O)n(-c4cccc(NS(=O)(=O)CC)c4)c3c(C)c(=O)n2C)c(F)c1 [Example 4-40],10 to 100,< 10,
CCc1ccc(Nc2c3c(=O)n(CC)c(=O)n(-c4cccc(NS(=O)(=O)CC)c4)c3c(C)c(=O)n2C)c(F)c1 [Example 4-41],10 to 100,10 to 100,
C#Cc1ccc(Nc2c3c(=O)n(CC)c(=O)n(-c4cccc(NS(C)(=O)=O)c4)c3c(C)c(=O)n2C)c(F)c1 [Example 4-42],10 to 100,< 10,
CCc1ccc(Nc2c3c(=O)n(CC)c(=O)n(-c4cccc(NS(C)(=O)=O)c4)c3c(C)c(=O)n2C)c(F)c1 [Example 4-44],100 to 1000,10 to 100,
C#Cc1ccc(Nc2c3c(=O)n(C4CC4)c(=O)n(-c4cccc(NC(C)=O)c4)c3c(C)c(=O)n2CC)c(F)c1 [Example 4-46],100 to 1000,10 to 100,
CCc1ccc(Nc2c3c(=O)n(C4CC4)c(=O)n(-c4cccc(NC(C)=O)c4)c3c(C)c(=O)n2CC)c(F)c1 [Example 4-47],100 to 1000,,
CC#Cc1ccc(Nc2c3c(=O)n(C4CC4)c(=O)n(-c4cccc(NC(C)=O)c4)c3c(C)c(=O)n2C)c(F)c1 [Example 4-52],100 to 1000,100 to 1000,
Cc1c(=O)n(C)c(Nc2ccc(I)cc2F)c2c(=O)n(C3CC3)c(=O)n(-c3cccc(NC(=O)c4cccn4C)c3)c12 [Example 4-87],100 to 1000,10 to 100,
Cc1c(=O)n(C)c(Nc2ccc(I)cc2F)c2c(=O)n(C3CC3)c(=O)n(-c3ccc(CC(=O)O)cc3)c12 [Example 4-94],100 to 1000,10 to 100,
Cc1c(=O)n(C)c(Nc2ccc(I)cc2F)c2c(=O)n(C3CC3)c(=O)n(-c3cccc(NC(=O)NCCO)c3)c12 [Example 4-95],100 to 1000,10 to 100,
Cc1c(=O)n(C)c(Nc2ccc(I)cc2F)c2c(=O)n(C3CC3)c(=O)n(-c3cccc(NS(=O)(=O)N(CCO)C(=O)NCCO)c3)c12 [Example 4-96],100 to 1000,10 to 100,
